According to publication PMC9865193, “Improvement of the Chemical Reactivity of Michael Acceptor of Ethacrynic Acid Correlates with Antiproliferative Activities” (Molecules, 2023):

What was measured:
HL60 cells = assay: MTS cell growth inhibition assay, HL60; type: cell-based, human; conditions: for IC50: Homo sapiens, HL-60, read-out: IC50 antiproliferative activity against HL60; for Selectivity index (SI) MRC5/HL60: ratio of IC50 MRC5/IC50 HL60
Source text: Based on a multiple target assay, all the prepared compounds (6–10) were first evaluated against HL60 leukemia cells to assess their in vitro antiproliferative activities. As mentioned in the Table 1, the obtained results were expressed as half-maximal inhibitory concentration (IC50) values with the average of at least three independent experiments and are compared to EA.
(§1) All cancer cell lines (HCT116, A549, MCF7, PC3, U87-MG, SKOV3, and MRC5) were obtained from the European Collection of Cell Culture (ECACC, Salisbury, UK) or from the American Type Culture Collection (Rockville, MD, USA) and were cultured according to the supplier’s instructions. Human HCT-116 colorectal carcinoma, MCF7 breast adenocarcinoma, PC3 prostate adenocarcinoma, A549 lung carcinoma, and SK-OV-3 ovary carcinoma were grown in Gibco McCoy’s 5A supplemented with 10% fetal calf serum (FCS) and 1% glutamine. HL60 myelogenous leukemia cells were grown in RPMI 1640 supplemented with 10% fetal calf serum (FCS) and 1% glutamine. U87-MG glioblastoma and human MRC-5 cells were grown in Gibco medium DMEM supplemented with 10% fetal calf serum (FCS) and 1% glutamine. Cells were maintained at 37 °C in a humidified atmosphere containing 5% CO2. Cell growth inhibition was determined by an MTS assay according to the manufacturer’s instructions (Promega, Madison, WI, USA). Briefly, the cells were seeded in 96-well plates (2.5 × 10^3 cells/well) containing 100 μL of growth medium. After 24 h of culture, the cells were treated with the tested compounds at 10 different final concentrations. After incubation for 72 h, 20 µL of Cell Titer 96®AQueous. One Solution Reagent was added for 2 h before recording absorbance at 490nm with a spectrophotometric plate reader. The concentration–response curves were generated with Graph Prism software and the 50% inhibition concentration values (IC50) were calculated from polynomial curves (four or five-parameter logistic equations).

A549 cells = assay: MTS cell growth inhibition assay, A549; type: cell-based, human; conditions: for IC50: Homo sapiens, A549, 72 h of exposure, read-out: IC50 antiproliferative activity A549; for Selectivity index (SI) MRC5/A549: ratio of IC50 MRC5/IC50 A549
Protocol: (§2) Moreover, in order to evaluate the safety index, their effect on the proliferation of human lung fibroblasts (MCR5) as a normal cell line was also studied.
(§3) All cancer cell lines (HCT116, A549, MCF7, PC3, U87-MG, SKOV3, and MRC5) were obtained from the European Collection of Cell Culture (ECACC, Salisbury, UK) or from the American Type Culture Collection (Rockville, MD, USA) and were cultured according to the supplier’s instructions. […] U87-MG glioblastoma and human MRC-5 cells were grown in Gibco medium DMEM supplemented with 10% fetal calf serum (FCS) and 1% glutamine. Cells were maintained at 37 °C in a humidified atmosphere containing 5% CO2. Cell growth inhibition was determined by an MTS assay according to the manufacturer’s instructions (Promega, Madison, WI, USA). Briefly, the cells were seeded in 96-well plates (2.5 × 10^3 cells/well) containing 100 μL of growth medium. After 24 h of culture, the cells were treated with the tested compounds at 10 different final concentrations. After incubation for 72 h, 20 µL of Cell Titer 96®AQueous. One Solution Reagent was added for 2 h before recording absorbance at 490nm with a spectrophotometric plate reader.

MCF7 cells = assay: MTS cell growth inhibition assay, MCF7; type: cell-based, human; conditions: for IC50: Homo sapiens, MCF7, 72 h of exposure, read-out: IC50 antiproliferative activity MCF7; for Selectivity index (SI) MRC5/MCF7: ratio of IC50 MRC5/IC50 MCF7
Protocol: as §2, §3

PC3 cells = assay: MTS cell growth inhibition assay, PC3; type: cell-based, human; conditions: for IC50: Homo sapiens, PC-3, PC3, 72 h of exposure, read-out: IC50 antiproliferative activity PC3; for Selectivity index (SI) MRC5/PC3: ratio of IC50 MRC5/IC50 PC3
Protocol: as §2, §1

U87-MG cells = assay: MTS cell growth inhibition assay, U87-MG; type: cell-based, human; conditions: for IC50: Homo sapiens, U-87 MG, U87-MG, 72 h of exposure, read-out: IC50 antiproliferative activity U87-MG; for Selectivity index (SI) MRC5/U87-MG: ratio of IC50 MRC5/IC50 U87-MG
Protocol: as §2, §3

SKOV3 cells = assay: MTS cell growth inhibition assay, SKOV3; type: cell-based, human; conditions: for IC50: Homo sapiens, SK-OV-3, SKOV3, 72 h of exposure, read-out: IC50 antiproliferative activity SKOV3; for Selectivity index (SI) MRC5/SKOV3: ratio of IC50 MRC5/IC50 SKOV3
Protocol: as §2, §1

HCT116 cells = assay: MTS cell growth inhibition assay, HCT116; type: cell-based, human; conditions: for IC50: Homo sapiens, HCT-116, HCT116, 72 h of exposure, read-out: IC50 antiproliferative activity HCT116; for Selectivity index (SI) MRC5/HCT116: ratio of IC50 MRC5/IC50 HCT116
Protocol: as §2, §3

MRC5 cells = assay: MTS cell growth inhibition assay, normal cell line MRC5; type: cell-based; conditions: MRC5 normal human lung fibroblasts, 72 h of exposure; read-out: IC50 antiproliferative activity MRC5
Protocol: as §2, §1

SMILES	IC50 (HL60 cells; HL60 leukemia cells, 72 h, MTS)	Selectivity index (SI) MRC5/HL60 (HL60 cells)	IC50 (A549 cells)	Selectivity index (SI) MRC5/A549 (A549 cells)	IC50 (MCF7 cells)	Selectivity index (SI) MRC5/MCF7 (MCF7 cells)	IC50 (PC3 cells)	Selectivity index (SI) MRC5/PC3 (PC3 cells)	IC50 (U87-MG cells)	Selectivity index (SI) MRC5/U87-MG (U87-MG cells)	IC50 (SKOV3 cells)	Selectivity index (SI) MRC5/SKOV3 (SKOV3 cells)	IC50 (HCT116 cells)	Selectivity index (SI) MRC5/HCT116 (HCT116 cells)	IC50 (MRC5 cells)	IC50 antiproliferative activity against HL60 (HL60 cells; HL60 leukemia cells, 72 h, MTS)
C=C(CC)C(=O)c1ccc(OCC(=O)NCCCC)cc1O [Compound 7, N-Butyl-2-(3-hydroxy-4-(2-methylenebutanoyl)phenoxy)acetamide]	1700 ± 520 nM	0.50	285 ± 67.8 nM	2.98	528 ± 16.9 nM	1.60	485 ± 20.9 nM	1.75	1610 ± 355 nM	0.52	1510 ± 363 nM	0.56	920 ± 20 nM	0.93	850 ± 110 nM	–
COc1cccc2c1C(=O)c1c(O)c3c(c(O)c1C2=O)C[C@@](O)(C(=O)CO)C[C@@H]3O[C@H]1C[C@H](N)[C@H](O)[C@H](C)O1 [Doxorubicin, doxorubicin, reference compound]	–	–	56.6 ± 0.84 nM	–	120 ± 9 nM	–	2.09 ± 0.03 nM	–	99.6 ± 2.34 nM	–	–	–	90 ± 3 nM	–	39.9 ± 1.22 nM	–
C=C(CC)C(=O)c1ccc(OCC(=O)O)cc1O [Compound 6, 2-(3-Hydroxy-4-(2-methylenebutanoyl)phenoxy)acetic acid]	> 10000 nM	–	–	–	–	–	–	–	–	–	–	–	–	–	–	–
C#CCOc1ccc(C(=O)C(=C)CC)c(Cl)c1Cl [Compound 10]	580 ± 40 nM	–	–	–	–	–	–	–	–	–	–	–	–	–	–	–
C=C(CC)C(=O)c1ccc(OCC(=O)NCCCC)c(Cl)c1Cl [Compound 9, N-Butyl-2-(2,3-dichloro-4-(2-methylenebutanoyl)phenoxy)acetamide]	–	–	–	–	–	–	–	–	–	–	–	–	–	–	–	inactive
C#CCOc1ccc(C(=O)C(=C)CC)c(O)c1 [Compound 8, 1-(2-Hydroxy-4-(prop-2-yn-1-yloxy)phenyl)-2-methylenebutan-1-one]	15 ± 6 nM	23.33	41.2 ± 1.88 nM	8.49	61.5 ± 0.9 nM	5.69	68.7 ± 3.7 nM	5.09	369 ± 50.1 nM	0.94	138 ± 53.8 nM	2.53	1260 ± 80 nM	0.27	350 ± 40 nM	–
